Results as given in patent publication US10363239B2, “Method for inhibiting growth of cancer cells” (Pain Therapeutics, Inc., priority 2013, dated 2019).
Read-outs that look alike come from different tables or passages of the source.

What was measured:
[1] = molecular target: FLNA pentapeptide of SEQ ID NO: 1 (Bn-VAKGL) (Homo sapiens, UniProt P21333); experiment: FITC-NLX-based FLNA screening assay (inhibition of FITC-naloxone binding to Bn-VAKGL on streptavidin plates); conditions: 10 nM FITC-NLX
[2] = tested on: mu opiate receptor (MOR); experiment: MOR agonist activity using [35S]GTPγS binding assay in striatal membranes; type: biochemical; conditions: for MOR agonist activity ([35S]GTPγS binding), FLNA-Binding Compound as Agonist 1 μM + BFNA: 1 μM compound + 1 μM β-funaltrexamine
Method: To assess the mu opiate receptor (MOR) agonist activity of positive compounds from the FLNA screening, compounds were tested in a [^35S]GTPγS binding assay using striatal membranes. […] This assay measures a functional consequence of receptor occupancy at one of the earliest receptor-mediated events. The assay permits traditional pharmacological parameters of potency, efficacy and antagonist affinity, with the advantage that agonist measures are not subjected to amplification or other modulation that may occur when analyzing parameters further downstream of the receptor.
Thus, striatal tissue was homogenized in 10 volumes of ice cold 25 mM HEPES buffer, pH 7.4, which contained 1 mM EGTA, 100 mM sucrose, 50 μg/ml leupeptin, 0.04 mM PMSF, 2 μg/ml soybean trypsin inhibitor and 0.2% 2-mercaptoethanol. The homogenates were centrifuged at 800×g for 5 minutes and the supernatants were centrifuged at 49,000×g for 20 minutes. The resulting pellets were suspended in 10 volume of reaction buffer, which contained 25 mM HEPES, pH 7.5, 100 mM NaCl, 50 μg/ml leupeptin, 2 μg/ml soybean trypsin inhibitor, 0.04 mM PMSF and 0.02% […].
The resultant striatal membrane preparation (200 μg) was admixed and maintained (incubated) at 30° C. for 5 minutes in reaction buffer as above that additionally contained 1 mM MgCl2 and 0.5 nM [^35S]GTPγS (0.1 μCi/assay, PerkinElmer Life and Analytical Sciences) in a total volume of 250 μl and continued for 5 minutes in the absence or presence of 0.1-10 μM of an assayed compound of interest. The reaction was terminated by dilution with 750 μl of ice-cold reaction buffer that contained 20 mM MgCl2 and 1 mM EGTA and immediate centrifugation at 16,000×g for 5 minutes.
The resulting pellet was solubilized by sonicating for 10 seconds in 0.5 ml of immunoprecipitation buffer containing 0.5% digitonin, 0.2% sodium cholate and 0.5% NP-40. Normal rabbit serum (1 μl) was added to 1 ml of lysate and incubated at 25° C. for 30 minutes. Nonspecific immune complexes were removed by incubation with 25 μl of protein A/G-conjugated agarose beads at 25° C. for 30 minutes followed by centrifugation at 5,000×g at 4° C. for 5 minutes. The supernatant was divided and separately incubated at 25° C. for 30 minutes with antibodies raised against Gαo proteins (1:1,000 dilutions).
The immunocomplexes so formed were collected by incubation at 25° C. for 30 minutes with 40 μl of agarose-conjugated protein A/G beads and centrifugation at 5,000×g at 4° C. for 5 minutes. The pellet was washed and suspended in buffer containing 50 mM Tris-HCl, pH 8.0, and 1% NP-40. The radioactivity in the suspension was determined by liquid scintillation spectrometry.

[3] = FLNA-binding compound 0.01 μM, read-out: Percent Binding Inhibition
[4] = FLNA-binding compound 0.1 μM, read-out: Percent Binding Inhibition
[5] = FLNA-binding compound 1 μM, read-out: Percent Binding Inhibition
[6] = Series C-2, 0.1 μM compound, relative to DAMGO
[7] = Series C-2, 0.1 μM compound, [35S]GTPγS binding to Gαo, striatal membranes
[8] = Series C-2, 1 μM compound + 1 μM β-FNA
[9] = Series C-2, 1 μM compound + β-FNA, relative to DAMGO + BFNA
[10] = Series C-2, 1 μM compound, relative to DAMGO
[11] = Series C-2, 1 μM compound, [35S]GTPγS binding to Gαo, striatal membranes
[12] = Series C-1, 0.1 μM compound, relative to DAMGO
[13] = Series C-1, 0.1 μM compound, [35S]GTPγS binding to Gαo, striatal membranes
[14] = Series C-1, 1 μM compound + 1 μM β-FNA
[15] = Series C-1, 1 μM compound + β-FNA, relative to DAMGO + BFNA
[16] = Series C-1, 1 μM compound, relative to DAMGO
[17] = Series C-1, 1 μM compound, [35S]GTPγS binding to Gαo, striatal membranes
[18] = 0.1 μM compound relative to DAMGO
[19] = 1 μM compound + BFNA relative to DAMGO + BFNA
[20] = 1 μM compound relative to DAMGO

Structure (SMILES)	inhibition at 0.01 µM [1, 3] [%]	inhibition at 0.1 µM [1, 4] [%]	inhibition at 1 µM [1, 5] [%]	% DAMGO (0.1 μM) [2, 6] [%]	MOR agonist activity, percent [35S]GTPγS binding at the stated compound concentration [2, 7] [%]	MOR agonist activity, percent [35S]GTPγS binding at the stated compound concentration [2, 8] [%]	% DAMGO + BFNA [2, 9] [%]	% DAMGO (1 μM) [2, 10] [%]	MOR agonist activity, percent [35S]GTPγS binding at the stated compound concentration [2, 11] [%]	also measured
CCN1CCC2(CC1)OCCN2S(=O)(=O)c1ccc(OC)cc1 [Compound C0089M]	40.7	46.1	51.2	136.3	234.5	81.9	237.4	134.4	295.3	–
O=C(O)c1ccc(C(=O)N2CCC3(CC2)OCCN3S(=O)(=O)c2ccc(C(=O)O)cc2)cc1 [Compound C0021]	34	38.4	40.6	–	–	–	–	–	–	% DAMGO (0.1 μM) [2, 12]: 94.5%; Concentration of FLNA-Binding Compound as Agonist 0.1 μM [2, 13]: 159.7%; Concentration of FLNA-Binding Compound as Agonist 1 μM + BFNA [2, 14]: 90.7%; % DAMGO + BFNA [2, 15]: 546.4%; % DAMGO (1 μM) [2, 16]: 87.8%; Concentration of FLNA-Binding Compound as Agonist 1 μM [2, 17]: 192.0%
O=C1CN(C2CCc3ccccc3C2)C2(CCN(S(=O)(=O)c3ccccc3)CC2)N1 (stereo not drawn) [C0136M(P5)]	–	–	–	93.4	176.8	74.5	153.6	95.6	237.3	inhibition at 0.01 µM ([1]; read-out: Percent Binding Inhibition, FLNA-binding compound 0.01 μM): 46.7%; inhibition at 0.1 µM ([1]; read-out: Percent Binding Inhibition, FLNA-binding compound 0.1 μM): 55.2%; inhibition at 1 µM ([1]; read-out: Percent Binding Inhibition, FLNA-binding compound 1 μM): 58.2%
COc1ccc(OCC(O)Cn2ccc3ccccc32)cc1 (stereo not drawn) [Compound A0077]	41.1	48.7	49.4	–	–	–	–	–	–	MOR agonist activity ([35S]GTPγS binding), FLNA-Binding Compound as Agonist 0.1 μM ([2]; 0.1 μM compound): 300.1%; % DAMGO (0.1 μM) [2, 18]: 170.5%; MOR agonist activity ([35S]GTPγS binding), FLNA-Binding Compound as Agonist 1 μM ([2]; 1 μM compound): 334.7%; MOR agonist activity ([35S]GTPγS binding), FLNA-Binding Compound as Agonist 1 μM + BFNA [2]: 103.5%; % DAMGO + BFNA [2, 19]: 470.5%; % DAMGO (1 μM) [2, 20]: 132.3%
CC1CCN(CC(O)COC2CC(C)CCC2C(C)C)CC1 (stereo not drawn) [Compound A0006]	37.9	43.5	47.5	–	–	–	–	–	–	MOR agonist activity ([35S]GTPγS binding), FLNA-Binding Compound as Agonist 0.1 μM ([2]; 0.1 μM compound): 170.0%; % DAMGO (0.1 μM) [2, 18]: 113.8%; MOR agonist activity ([35S]GTPγS binding), FLNA-Binding Compound as Agonist 1 μM ([2]; 1 μM compound): 190.9%; MOR agonist activity ([35S]GTPγS binding), FLNA-Binding Compound as Agonist 1 μM + BFNA [2]: 18.2%; % DAMGO + BFNA [2, 19]: 68.7%; % DAMGO (1 μM) [2, 20]: 82.9%
O=[N+]([O-])c1ccc(S(=O)(=O)N2CCC3(CC2)NCCS3)cc1 [Compound C0044]	37.3	43.9	50.6	102.8	173.7	59.1	356.0	128.0	280.1	–
COC(=O)c1ccc(S(=O)(=O)N2CCC3(CC2)OCCN3S(=O)(=O)c2ccc(C(=O)OC)cc2)cc1 [Compound C0028]	32.2	36.6	43.3	–	–	–	–	–	–	% DAMGO (0.1 μM) [2, 12]: 55.6%; Concentration of FLNA-Binding Compound as Agonist 0.1 μM [2, 13]: 93.9%; Concentration of FLNA-Binding Compound as Agonist 1 μM + BFNA [2, 14]: 78.4%; % DAMGO + BFNA [2, 15]: 472.3%; % DAMGO (1 μM) [2, 16]: 60.5%; Concentration of FLNA-Binding Compound as Agonist 1 μM [2, 17]: 132.4%
